Test results taken from patent US20120208809A1, “9H-PYRROLO[2,3-B: 5,4-C'] DIPYRIDINE AZACARBOLINE DERIVATIVES, PREPARATION THEREOF, AND THERAPEUTIC USE THEREOF” (SANOFI, priority 2009, published 2012).
pEC50, pIC50: −log10 of the molar value.

What was measured:
Pim-1 = target: T1, Pim-1 (Homo sapiens, UniProt P11309); assay: TR-FRET assay of Pim kinase activity (phosphorylation of Bad Ser112), Pim-1; assay type: biochemical; conditions: ATP 40 μM, read-out: IC50 Pim1
T1 construct: full-length human recombinant His6-labelled Pim-1, Pim-2 or Pim-3 protein; His6; made in house
T1 sequence (P11309 whole entry): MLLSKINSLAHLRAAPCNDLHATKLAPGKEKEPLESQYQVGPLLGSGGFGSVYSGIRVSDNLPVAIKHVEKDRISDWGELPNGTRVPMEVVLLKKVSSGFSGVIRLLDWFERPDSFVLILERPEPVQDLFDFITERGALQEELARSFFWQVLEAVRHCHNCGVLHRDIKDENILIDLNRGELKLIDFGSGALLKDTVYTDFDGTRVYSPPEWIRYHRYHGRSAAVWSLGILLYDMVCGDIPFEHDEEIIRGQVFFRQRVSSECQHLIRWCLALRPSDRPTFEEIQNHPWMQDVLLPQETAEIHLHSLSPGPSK
Method in brief: (§1)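 Full-length His6-tagged human Pim-1, -2 or -3 phosphorylate full-length His6-Bad at 40 μM ATP; phospho-Ser112 detected by TR-FRET (Eu anti-phosphoBad, APC anti-His6), 665/615 nm ratio. Compounds run at 10 concentrations in duplicate, typically top 30 μM; IC50 from 4-parameter logistic fit.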

Pim-2 = target: T2, Pim-2 (Homo sapiens, UniProt Q9P1W9); assay: TR-FRET assay of Pim kinase activity (phosphorylation of Bad Ser112), Pim-2; assay type: biochemical; conditions: ATP 40 μM, read-out: IC50 Pim2
T2 construct: full-length human recombinant His6-labelled Pim-1, Pim-2 or Pim-3 protein; His6; made in house
T2 sequence (Q9P1W9 whole entry): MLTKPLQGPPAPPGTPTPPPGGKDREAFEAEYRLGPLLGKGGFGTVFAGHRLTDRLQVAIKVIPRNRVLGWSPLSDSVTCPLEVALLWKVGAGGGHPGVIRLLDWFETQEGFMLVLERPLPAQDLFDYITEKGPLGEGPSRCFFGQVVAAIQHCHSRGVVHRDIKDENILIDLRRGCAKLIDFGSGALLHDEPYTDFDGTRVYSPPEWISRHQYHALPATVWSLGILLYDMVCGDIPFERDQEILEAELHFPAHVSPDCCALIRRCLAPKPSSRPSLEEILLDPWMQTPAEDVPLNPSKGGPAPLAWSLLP
Method in brief: as §1

Pim-3 = target: T3, Pim-3 (Homo sapiens, UniProt Q86V86); assay: TR-FRET assay of Pim kinase activity (phosphorylation of Bad Ser112), Pim-3; assay type: biochemical; conditions: ATP 40 μM, read-out: IC50 Pim3
T3 construct: full-length human recombinant His6-labelled Pim-1, Pim-2 or Pim-3 protein; His6; made in house
Method in brief: as §1

CDK1 = CDK1 (Homo sapiens, UniProt P06493); assay: Biochemical results, IC50 CDK1
Chain of CDK1 (P06493 whole entry, species assumed): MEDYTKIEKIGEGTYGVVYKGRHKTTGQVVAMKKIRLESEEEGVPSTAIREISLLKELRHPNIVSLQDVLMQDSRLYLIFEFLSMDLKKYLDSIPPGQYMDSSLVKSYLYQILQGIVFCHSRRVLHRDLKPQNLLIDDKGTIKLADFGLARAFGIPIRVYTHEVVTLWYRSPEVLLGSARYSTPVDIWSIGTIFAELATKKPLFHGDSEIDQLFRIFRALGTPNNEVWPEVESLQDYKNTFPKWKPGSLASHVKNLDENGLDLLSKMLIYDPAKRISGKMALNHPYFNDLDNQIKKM
Chain of CDK1 (P14635 whole entry partner, species assumed): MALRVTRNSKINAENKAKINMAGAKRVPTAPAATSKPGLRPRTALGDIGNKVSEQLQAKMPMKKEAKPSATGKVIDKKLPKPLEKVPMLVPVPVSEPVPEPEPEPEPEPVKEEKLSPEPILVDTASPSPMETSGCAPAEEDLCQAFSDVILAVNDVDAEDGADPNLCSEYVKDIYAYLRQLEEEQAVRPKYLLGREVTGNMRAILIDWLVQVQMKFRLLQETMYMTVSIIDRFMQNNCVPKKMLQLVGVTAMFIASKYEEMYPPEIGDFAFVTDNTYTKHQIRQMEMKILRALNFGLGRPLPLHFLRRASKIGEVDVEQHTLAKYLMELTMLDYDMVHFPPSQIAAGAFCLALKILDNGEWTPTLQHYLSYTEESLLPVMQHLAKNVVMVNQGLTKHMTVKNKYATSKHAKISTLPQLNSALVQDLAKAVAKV

PLK1 = PLK1 (Homo sapiens, UniProt P53350); assay: Biochemical results, IC50 PLK1
Chain of PLK1 (P53350 whole entry, species assumed): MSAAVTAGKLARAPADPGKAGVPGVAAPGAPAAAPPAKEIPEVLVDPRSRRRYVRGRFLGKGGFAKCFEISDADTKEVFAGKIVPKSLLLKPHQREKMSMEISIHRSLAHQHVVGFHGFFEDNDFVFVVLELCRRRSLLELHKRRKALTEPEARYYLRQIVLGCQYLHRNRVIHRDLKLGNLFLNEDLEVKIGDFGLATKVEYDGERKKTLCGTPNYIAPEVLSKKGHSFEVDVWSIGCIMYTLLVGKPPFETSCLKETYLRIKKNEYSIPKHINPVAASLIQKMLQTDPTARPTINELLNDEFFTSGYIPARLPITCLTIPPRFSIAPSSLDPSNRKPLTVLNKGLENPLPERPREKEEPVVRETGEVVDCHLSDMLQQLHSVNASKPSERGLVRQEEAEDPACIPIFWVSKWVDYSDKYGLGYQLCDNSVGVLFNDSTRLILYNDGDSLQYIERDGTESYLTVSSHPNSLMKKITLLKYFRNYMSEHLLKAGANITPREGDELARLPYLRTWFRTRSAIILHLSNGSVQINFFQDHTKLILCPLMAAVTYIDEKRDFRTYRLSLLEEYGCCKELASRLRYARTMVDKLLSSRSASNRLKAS

EOL-1 = assay: Cell viability assay (CellTiter-Blue), EOL-1; assay type: cell-based; conditions: Homo sapiens, EOL1, read-out: EC50 EOL-1 μM (eosinophilic leukaemia), EOL-1 cells, read-out: EC50 EOL-1 μM (lymphoma);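 further: EOL-1 is an acute myeloid eosinophilic leukaemia line not a lymphoma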
Excerpt: (§2) The representative compounds of the invention are also screened as regards their effects on cell proliferation and viability, using a variety of tumoral cell lines of human source, representative of different pathological indications. These cell lines include:
Models of Haematological Cancers: • TF-1 (acute myelogenic leukaemia; AML M6 at the time of diagnosis); • K G-1 (AML; erythroleukaemia evolving into AML); • KG-1a (AML; subclone derived from immature KG-1); • EOL-1 (AML: eosinophilic leukaemia); • PL-21 (AML; M3); • ML-2 (AML; T-NHL evolving into T-ALL evolving into AML M4); • HL-60 (AML, M3); • Kasumi-1 (AML); • GDM-1 (AML); • K-562 (CML—chronic myelogenic leukaemia; blastic crisis); • JURL-MK1 (CML; blastic crisis); • DND-41 (T-ALL—T-cell acute lymphoblastic leukaemia); • Jurkat (T-ALL); NALM-6 (B-ALL B-cell ALL); • CEM (ALL; lymphosarcoma evolving into ALL); • Jeko-1 (B-NHL—B-cell non-Hodgkin lymphoma; lymphoma with coat cells derived from a large-cell variant in leukaemic transformation); • WSU-DLCL2 (B-NHL; diffuse lymphoma with large B cells); • RL (B-NHL; undifferentiated diffuse); • OCl-Ly10 (B-NHL); • DoHH-2 (B-NHL); • RPMI-8226 (MM—multiple myelomas); • JVM-2 (B-CLL—B-cell chronic lymphocytic leukaemia); and • JVM-3 (B-CLL).
(§3) In order to measure the viability, the tumour cells are incubated in 96-well or 384-well format for 48, 72 or 96 hours, preferably 72 hours, with a compound of the invention at dilutions of a factor 3, with, in general, nine doses in total, the highest dose being equal to 10 μM or 30 μM. The cell viability is evaluated by adding CellTiter-Blue® (Promega, Madison, Wis., United States) for 4 hours and endpoint readings are taken using a SpectraMax Genmini EM plate reader (Molecular Devices, Sunnyvale, Calif., United States). The CellTiter-Blue® cell viability assay measures the ability of the cells in culture to reduce resazurin to resorufin, the intensity of the fluorescence signal being directly proportional to the number of live cells. The EC50 represents the concentration of compound that leads to a 50% reduction of the viability/proliferative expansion of the cells.

MV4-11 = assay: Cell viability assay (CellTiter-Blue), MV4-11; assay type: cell-based; conditions: Homo sapiens, read-out: EC50 MV4-11 μM (acute myeloid leukemia), MV4-11 cells, read-out: EC50 MV4-11 μM (myeloma)
Method: as §2, §3

MOLM-13 = assay: Cell viability assay (CellTiter-Blue), MOLM-13; assay type: cell-based; conditions: Homo sapiens, read-out: EC50 MOLM-13 μM, MOLM-13 cells, read-out: EC50 MOLM-13 μM (myeloma)
Method: as §2, §3

phosphoBAD (DND-41) = assay: Level of phosphorylation of Bad by ELISA, DND-41 cell line; assay type: cell-based; conditions: Homo sapiens, DND41, DND-41 cells, 3 hours at 37° C.
Method: The activity of the molecules is evaluated on the JEKO or DND-41 cell line by measuring the level of phosphorylation of Bad and the total Bad content, via the ELISA technique.
The JEKO or DND-41 cells are resuspended at a concentration of 500 000 cells per ml. The cells are then diluted in RPMI-1640 medium containing 20% foetal calf serum. 225 μl of cells are placed in a plate. Serial dilutions of the molecules are then performed (8 points, three-fold dilution, range started at 10 mM). Each dilution point is then diluted to 1/100 in medium. Next, 25 μl of each of the concentrations are added to the cells and then incubated for 3 hours at 37° C.
100 μl of the cells are transferred into a plate treated with poly-D-Lysine. The plate is then incubated for 5-10 minutes at 37° C. and then centrifuged for 5 minutes at 1500 rpm. A volume of 100 μl of 8% fixing solution (solution of formaldehyde in PBS buffer) is added to each of the wells. After covering with a self-adhesive film and a lid, the plate is incubated for 20 minutes at room temperature and then stored at 4° C. overnight.
Next, the liquid is removed and two successive washes are performed with washing buffer. 100 μl of quenching buffer are added, followed by incubating for 15 minutes at room temperature. After washing, 100 μl of […] at room temperature. After washing, 50 μl of primary antibody diluted to 1/250 for pBAD (Cell Signaling Cat#5284) and to 1/500 for Bad (MBL Cat#591) are added to each of the plates. Each plate is incubated for 2 hours at room temperature. After two washes, 50 μl of secondary antibody (diluted to 1/16) are added to the pBAD plate (tebu-bio ref; FE-021) and 50 μl of the HRP-conjugated IgG secondary antibody (Santa Cruz Cat #SC-2004; diluted to 1/1000) are added to the Bad plate. Incubation for 1 hour at room temperature is performed. Four washes with the washing solution are performed, followed by three washes with PBS. Finally, 100 μl of the developing solution are added, followed by incubation for 10 minutes. Finally, 100 μl of the quenching solution are added, before reading at 450 nm.

Row | pIC50 (Pim-1) | pIC50 (Pim-2) | pIC50 (Pim-3) | pIC50 (CDK1) | pIC50 (PLK1) | pEC50 (MV4-11) | pEC50 (MOLM-13) | pIC50 (phosphoBAD (DND-41)) | SMILES | pEC50 (EOL-1)
1 | > 7.00 | > 7.00 | > 7.00 | 6.00 to 7.00 | 5.30 to 6.00 | 6.00 to 7.00 | 6.00 to 7.00 | – | CN(C)CCCNC(=O)c1ccc(-c2c(F)cnc3[nH]c4cnc(-c5cnn(C)c5)cc4c23)cc1 [Example 38] | > 7.00
2 | > 7.00 | 6.00 to 7.00 | > 7.00 | 6.00 to 7.00 | 6.00 to 7.00 | – | 6.00 to 7.00 | – | O=C(NCCCN1CCCC1)c1ccc(-c2c(F)cnc3[nH]c4cnc(-c5cccnc5)cc4c23)cc1 [Example 20, 4-[3-fluoro-6-(pyridin-3-yl)-9H-pyrrolo[2,3-b:5,4-c′]dipyridin-4-yl]-N-[3-(pyrrolidin-1-yl)propyl]benzamide] | 6.00 to 7.00
3 | > 7.00 | 6.00 to 7.00 | > 7.00 | 5.30 to 6.00 | 6.00 to 7.00 | 6.00 to 7.00 | – | 6.00 to 7.00 | CN(C)CC(C)(C)CNC(=O)c1ccc(-c2c(F)cnc3[nH]c4cnc(-c5cccnc5)cc4c23)cc1 [Example 52, N-[3-(dimethylamino)-2,2-dimethylpropyl]-4-[3-fluoro-6-(pyridin-3-yl)-9H-pyrrolo[2,3-b:5,4-c′]dipyridin-4-yl]benzamide] | > 7.00
4 | > 7.00 | 6.00 to 7.00 | > 7.00 | 6.00 to 7.00 | 5.30 to 6.00 | 6.00 to 7.00 | – | 5.30 to 6.00 | CN(C)CCCCNC(=O)c1ccc(-c2c(F)cnc3[nH]c4cnc(-c5cccnc5)cc4c23)cc1 [Example 75, N-[4-(dimethylamino)butyl]-4-[3-fluoro-6-(pyridin-3-yl)-9H-pyrrolo[2,3-b:5,4-c′]dipyridin-4-yl]benzamide] | 6.00 to 7.00

Further lines, the compound ahead of its results:

Row | SMILES | pIC50 (Pim-1) | pIC50 (Pim-2) | pIC50 (Pim-3) | pIC50 (CDK1) | pIC50 (PLK1) | pEC50 (MV4-11) | pEC50 (MOLM-13) | pIC50 (phosphoBAD (DND-41)) | pEC50 (EOL-1)
5 | CN(C)CCNC(=O)c1cccc(-c2c(F)cnc3[nH]c4cnc(-c5cccnc5)cc4c23)c1 [Example 12, N-[2-(dimethylamino)ethyl]-3-[3-fluoro-6-(pyridin-3-yl)-9H-pyrrolo[2,3-b:5,4-c′]dipyridin-4-yl]benzamide] | > 7.00 | 5.30 to 6.00 | > 7.00 | 5.30 to 6.00 | 5.30 to 6.00 | 5.30 to 6.00 | 6.00 to 7.00 | – | 6.00 to 7.00
6 | O=C(NCCN1CCOCC1)c1ccc(-c2c(F)cnc3[nH]c4cnc(-c5cccnc5)cc4c23)cc1 [Example 21, 4-[3-fluoro-6-(pyridin-3-yl)-9H-pyrrolo[2,3-b:5,4-c′]dipyridin-4-yl]-N-[2-(morpholin-4-yl)ethyl]benzamide] | > 7.00 | 5.30 to 6.00 | > 7.00 | 6.00 to 7.00 | 5.30 to 6.00 | 6.00 to 7.00 | 6.00 to 7.00 | – | 6.00 to 7.00
7 | CC(C)N(CCNC(=O)c1ccc(-c2c(F)cnc3[nH]c4cnc(-c5cccnc5)cc4c23)cc1)C(C)C [Example 66, N-[2-(dipropan-2-ylamino)ethyl]-4-[3-fluoro-6-(pyridin-3-yl)-9H-pyrrolo[2,3-b:5,4-c′]dipyridin-4-yl]benzamide] | > 7.00 | 6.00 to 7.00 | > 7.00 | 5.30 to 6.00 | 6.00 to 7.00 | 6.00 to 7.00 | – | 6.00 to 7.00 | > 7.00
8 | CN1CCN(NC(=O)c2ccc(-c3c(F)cnc4[nH]c5cnc(-c6cccnc6)cc5c34)cc2)CC1 [Example 7, 4-[3-fluoro-6-(pyridin-3-yl)-9H-pyrrolo[2,3-b:5,4-c′]dipyridin-4-yl]-N-(4-methylpiperazin-1-yl)benzamide] | > 7.00 | 6.00 to 7.00 | > 7.00 | 5.30 to 6.00 | 6.00 to 7.00 | 6.00 to 7.00 | 6.00 to 7.00 | – | > 7.00
9 | CN(CC1CCCCN1C)C(=O)c1ccc(-c2c(F)cnc3[nH]c4cnc(-c5cccnc5)cc4c23)cc1 (stereo not drawn) [Example 64, 4-[3-fiuoro-6-(pyridin-3-yl)-9H-pyrrolo[2,3-b:5,4-c′]dipyridin-4-yl]-N-methyl-N-[(1-methylpiperidin-2-yl)methyl]benzamide] | > 7.00 | 6.00 to 7.00 | > 7.00 | 5.30 to 6.00 | 6.00 to 7.00 | 6.00 to 7.00 | – | 6.00 to 7.00 | 6.00 to 7.00
10 | O=C(NCCCN1CCOCC1)c1ccc(-c2c(F)cnc3[nH]c4cnc(-c5cccnc5)cc4c23)cc1 [Example 19, 4-[3-fluoro-6-(pyridin-3-yl)-9H-pyrrolo[2,3-b:5,4-c′]dipyridin-4-yl]-N-[3-(morpholin-4-yl)propyl]benzamide] | > 7.00 | 6.00 to 7.00 | > 7.00 | 5.30 to 6.00 | 6.00 to 7.00 | – | 6.00 to 7.00 | – | 6.00 to 7.00
